According to paper PMC4080982, “Interactions of antagonists with subtypes of inositol 1,4,5-trisphosphate (IP3) receptor” (British Journal of Pharmacology, 2014):

What was measured:
[1] = biological target: T1, rat IP3R1 (Rattus norvegicus, UniProt P29994); test: IP3-evoked Ca^2+ release from permeabilized DT40-IP3R1 cells; assay type: cell-based; conditions: IP3R1
T1 construct: different for NTs (NT2 > NT1 > > NT3) and full-length IP3Rs (IP3R3 > IP3R1 ≥ IP3R2); expressed in transfected cells
Method: (§1) We used DT40 cells lacking endogenous IP3Rs (Sugawara et al., [1997]), but stably expressing rat IP3R1 (GenBank accession number GQ233032.1; Pantazaka and Taylor, [2011]), mouse IP3R2 (GU980658.1; Tovey et al., [2010]) or rat IP3R3 (GQ233031.1; Rahman et al., [2009]). Cells were grown in suspension in RPMI 1640 medium supplemented with 10% FBS, 1% heat-inactivated chicken serum, 2 mM glutamine and 50 μM 2-mercaptoethanol at 37°C in humidified air containing 5% CO2. Cells were used or passaged when they reached a density of ∼1.5 × 10^6 cells mL^−1.
(§2) A low-affinity Ca^2+ indicator trapped within the ER of permeabilized DT40 cells was used to measure IP3-evoked Ca^2+ release (Tovey et al., [2006]; Saleem et al., [2012]). Briefly, the ER was loaded with indicator by incubating cells (∼5 × 10^7 mL^−1) in the dark with Mag-fluo-4AM (20 μM) in HEPES-buffered saline (HBS) containing 0.02% (v/v) Pluronic F127 for 1 h at 22°C. HBS had the following composition: 135 mM NaCl, 5.9 mM KCl, 11.6 mM HEPES, 1.5 mM CaCl2, 11.5 mM glucose, 1.2 mM MgCl2, pH 7.3. After permeabilization of the plasma membrane with saponin (10 μg·mL^−1, 4 min, 37°C) in Ca^2+-free cytosol-like medium (CLM), permeabilized cells were washed (650× g, 2 min) and resuspended (∼10^7 mL^−1) in Mg^2+-free CLM containing carbonyl cyanide 4-(trifluoromethoxy) phenylhydrazone (FCCP, 10 μM) to inhibit mitochondria, and supplemented with CaCl2 to give a final free [Ca^2+] of 220 nM after addition of 1.5 mM MgATP. Ca^2+-free CLM had the following composition: 2 mM NaCl, 140 mM KCl, 1 mM EGTA, 20 mM PIPES, 2 mM MgCl2, pH 7.0. Permeabilized cells were then distributed into 96-well plates (50 μL, 5 × 10^5 cells per well), centrifuged (300× g, 2 min) and used for experiments at 20°C. Addition of MgATP (1.5 mM) allowed Ca^2+ uptake by the ER, which was monitored at intervals of ∼1 s using a FlexStation-3 plate reader (MDS Analytical Devices, Berkshire, UK; Tovey et al., [2006]). After 2 min, when the ER had loaded to steady-state with Ca^2+, IP3 was added with CPA (10 μM) to inhibit further Ca^2+ uptake. IP3-evoked Ca^2+ release was expressed as a fraction of that released by ionomycin (1 μM; Tovey et al., [2006]). Similar methods were used to measure IP3-evoked Ca^2+ release from intact or permeabilized HEK cells (Tovey et al., [2008]). The timings of antagonist additions are described in the figure legends. The affinity of each competitive antagonist (pKD) was determined from the intercept on the abscissa of the Schild plot.
(§3) Concentration–effect relationships were fitted to Hill equations using Prism (version 5.0, GraphPad, San Diego, CA, USA), from which Hill coefficients (h), the fraction of the intracellular Ca^2+ stores released by a maximally effective concentrations of IP3, and pEC50 values were calculated.

[2] = biological target: T2, mouse IP3R2 (Mus musculus, UniProt Q9Z329); test: IP3-evoked Ca^2+ release from permeabilized DT40-IP3R2 cells; assay type: cell-based; conditions: IP3R2
T2 construct: different for NTs (NT2 > NT1 > > NT3) and full-length IP3Rs (IP3R3 > IP3R1 ≥ IP3R2); expressed in transfected cells
T2 sequence (Q9Z329 whole entry): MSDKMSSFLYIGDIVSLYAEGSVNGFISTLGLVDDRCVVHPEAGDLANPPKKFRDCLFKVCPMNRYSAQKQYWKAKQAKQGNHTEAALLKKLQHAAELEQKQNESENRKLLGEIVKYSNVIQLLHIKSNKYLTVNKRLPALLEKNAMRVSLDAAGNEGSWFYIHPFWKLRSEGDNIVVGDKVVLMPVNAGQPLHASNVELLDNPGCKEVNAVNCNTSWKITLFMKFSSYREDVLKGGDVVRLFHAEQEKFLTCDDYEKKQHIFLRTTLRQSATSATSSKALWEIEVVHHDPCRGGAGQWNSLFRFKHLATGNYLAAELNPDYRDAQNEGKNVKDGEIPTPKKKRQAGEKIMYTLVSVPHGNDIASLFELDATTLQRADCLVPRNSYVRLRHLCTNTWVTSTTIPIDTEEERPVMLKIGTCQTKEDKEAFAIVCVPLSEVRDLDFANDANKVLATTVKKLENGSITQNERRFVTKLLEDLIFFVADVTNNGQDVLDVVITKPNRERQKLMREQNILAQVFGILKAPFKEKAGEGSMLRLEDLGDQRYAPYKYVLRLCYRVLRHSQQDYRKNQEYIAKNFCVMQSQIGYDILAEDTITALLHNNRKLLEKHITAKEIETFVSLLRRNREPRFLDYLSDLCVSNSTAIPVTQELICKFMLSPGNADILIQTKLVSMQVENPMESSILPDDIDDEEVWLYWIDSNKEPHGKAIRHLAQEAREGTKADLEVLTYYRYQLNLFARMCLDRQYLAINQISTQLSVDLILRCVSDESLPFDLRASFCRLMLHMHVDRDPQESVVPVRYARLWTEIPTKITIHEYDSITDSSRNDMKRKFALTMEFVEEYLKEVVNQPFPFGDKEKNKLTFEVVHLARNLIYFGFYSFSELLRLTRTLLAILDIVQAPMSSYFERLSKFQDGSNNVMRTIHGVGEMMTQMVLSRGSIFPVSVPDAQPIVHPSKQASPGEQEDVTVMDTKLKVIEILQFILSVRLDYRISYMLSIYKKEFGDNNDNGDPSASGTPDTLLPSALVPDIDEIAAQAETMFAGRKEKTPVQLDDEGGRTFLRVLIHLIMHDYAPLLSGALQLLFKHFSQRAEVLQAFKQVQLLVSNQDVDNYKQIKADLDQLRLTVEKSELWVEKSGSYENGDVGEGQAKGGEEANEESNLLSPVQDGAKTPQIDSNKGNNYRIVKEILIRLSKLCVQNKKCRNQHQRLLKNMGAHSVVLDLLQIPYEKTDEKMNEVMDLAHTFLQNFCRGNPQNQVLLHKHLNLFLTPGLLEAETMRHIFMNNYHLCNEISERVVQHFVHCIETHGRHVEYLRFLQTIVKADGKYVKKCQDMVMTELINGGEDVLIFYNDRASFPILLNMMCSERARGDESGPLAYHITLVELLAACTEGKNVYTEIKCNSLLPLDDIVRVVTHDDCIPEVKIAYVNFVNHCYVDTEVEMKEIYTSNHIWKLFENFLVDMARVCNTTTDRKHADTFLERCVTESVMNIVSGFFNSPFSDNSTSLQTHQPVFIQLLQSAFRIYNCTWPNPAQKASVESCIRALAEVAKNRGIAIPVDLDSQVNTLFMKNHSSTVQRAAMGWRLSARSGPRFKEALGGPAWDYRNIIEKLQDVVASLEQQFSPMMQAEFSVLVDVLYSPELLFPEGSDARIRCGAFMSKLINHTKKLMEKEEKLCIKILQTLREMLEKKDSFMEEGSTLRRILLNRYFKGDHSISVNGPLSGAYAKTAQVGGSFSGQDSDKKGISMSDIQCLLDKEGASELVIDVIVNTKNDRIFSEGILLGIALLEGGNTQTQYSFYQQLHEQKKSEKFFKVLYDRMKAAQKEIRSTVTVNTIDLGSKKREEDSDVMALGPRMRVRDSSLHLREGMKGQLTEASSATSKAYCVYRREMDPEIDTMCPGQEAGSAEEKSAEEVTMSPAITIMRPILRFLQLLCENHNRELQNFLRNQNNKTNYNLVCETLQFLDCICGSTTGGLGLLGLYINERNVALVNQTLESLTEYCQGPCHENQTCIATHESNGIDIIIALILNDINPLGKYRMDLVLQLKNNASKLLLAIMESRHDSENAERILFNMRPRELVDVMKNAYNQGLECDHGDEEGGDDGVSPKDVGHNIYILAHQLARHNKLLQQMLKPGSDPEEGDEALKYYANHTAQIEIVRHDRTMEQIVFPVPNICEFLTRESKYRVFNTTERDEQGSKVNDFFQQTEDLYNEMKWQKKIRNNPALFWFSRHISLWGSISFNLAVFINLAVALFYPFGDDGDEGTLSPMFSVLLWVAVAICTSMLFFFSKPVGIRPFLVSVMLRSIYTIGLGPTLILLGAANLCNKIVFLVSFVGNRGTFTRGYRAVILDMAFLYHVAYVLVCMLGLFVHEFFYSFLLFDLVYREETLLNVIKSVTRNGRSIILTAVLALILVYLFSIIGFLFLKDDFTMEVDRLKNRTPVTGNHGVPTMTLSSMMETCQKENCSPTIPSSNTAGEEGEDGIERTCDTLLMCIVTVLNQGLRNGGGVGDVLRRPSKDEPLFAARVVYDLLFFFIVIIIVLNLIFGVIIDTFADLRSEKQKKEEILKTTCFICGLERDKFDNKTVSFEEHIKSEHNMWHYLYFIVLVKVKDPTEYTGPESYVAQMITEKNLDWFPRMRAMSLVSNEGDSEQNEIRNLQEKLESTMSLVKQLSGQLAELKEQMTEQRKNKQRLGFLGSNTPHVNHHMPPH
Method: as §1, §2, §3

[3] = biological target: T3, rat IP3R3 (Rattus norvegicus, UniProt Q63269); test: IP3-evoked Ca^2+ release from permeabilized DT40-IP3R3 cells; assay type: cell-based; conditions: IP3R3
T3 construct: different for NTs (NT2 > NT1 > > NT3) and full-length IP3Rs (IP3R3 > IP3R1 ≥ IP3R2); expressed in transfected cells
Method: as §1, §2, §3

[4] = system: permeabilized DT40-IP3R1-3 cells; test: Ca^2+ uptake and Ca^2+ content of the intracellular stores of permeabilized DT40 cells; assay type: cell-based; conditions: permeabilized DT40 cells, 5 min pre-incubation
Method: Briefly, the ER was loaded with indicator by incubating cells (∼5 × 10^7 mL^−1) in the dark with Mag-fluo-4AM (20 μM) in HEPES-buffered saline (HBS) containing 0.02% (v/v) Pluronic F127 for 1 h at 22°C. […] Ca^2+-free CLM had the following composition: 2 mM NaCl, 140 mM KCl, 1 mM EGTA, 20 mM PIPES, 2 mM MgCl2, pH 7.0. Permeabilized cells were then distributed into 96-well plates (50 μL, 5 × 10^5 cells per well), centrifuged (300× g, 2 min) and used for experiments at 20°C. […] After 2 min, when the ER had loaded to steady-state with Ca^2+, IP3 was added with CPA (10 μM) to inhibit further Ca^2+ uptake. […] The timings of antagonist additions are described in the figure legends. The affinity of each competitive antagonist (pKD) was determined from the intercept on the abscissa of the Schild plot.

[5] = system: HEK cells; test: IP3-evoked Ca^2+ release from permeabilized HEK cells; assay type: cell-based; conditions: 5 min
Method: as §2, with “Ca^2+-free CLM had the following composition: 2 mM NaCl, 140 mM KCl, 1 mM EGTA, 20 mM PIPES, 2 mM MgCl2, pH 7.0. Permeabilized cells were then distributed into 96-well plates (50 μL, 5 × 10^5 cells per well), centrifuged (300× g, 2 min) and used for experiments at 20°C.” left out, “After 2 min, when the ER had loaded to steady-state with Ca^2+, IP3 was added with CPA (10 μM) to inhibit further Ca^2+ uptake.” left out, “Similar methods were used to measure IP3-evoked Ca^2+ release from intact or permeabilized HEK cells (Tovey et al., [2008]). The timings of antagonist additions are described in the figure legends.” left out

[6] = system: HEK cells; test: Steady-state Ca^2+ content of the intracellular stores of permeabilized HEK cells; assay type: cell-based; conditions: 5 min
Method: as §2, with “Ca^2+-free CLM had the following composition: 2 mM NaCl, 140 mM KCl, 1 mM EGTA, 20 mM PIPES, 2 mM MgCl2, pH 7.0. Permeabilized cells were then distributed into 96-well plates (50 μL, 5 × 10^5 cells per well), centrifuged (300× g, 2 min) and used for experiments at 20°C.” left out, “After 2 min, when the ER had loaded to steady-state with Ca^2+, IP3 was added with CPA (10 μM) to inhibit further Ca^2+ uptake.” left out, “Similar methods were used to measure IP3-evoked Ca^2+ release from intact or permeabilized HEK cells (Tovey et al., [2008]). The timings of antagonist additions are described in the figure legends.” left out

[7] = system: HEK cells; test: Carbachol-evoked Ca^2+ signals in intact HEK cells; assay type: cell-based; conditions: intact HEK cells; Xestospongin 10 μM for 30 min
Method: as §2

[8] = system: HEK cells; parameters: method as in Kurian et al., [2009]; conditions: Xestospongin C 10 μM for 30 min in Ca^2+-free medium, ref Kurian et al., [2009]; cited from earlier work
[9] = system: cerebellar microsomes; parameters: method as in Gafni et al., [1997]; conditions: ref Gafni et al., [1997], read-out: IC50, inhibition of IP3-evoked Ca^2+ release; cited from earlier work
[10] = 5 µM, 5 min, purified (Gafni et al., 1997)
[11] = 20 µM, 7 min, purified (Gafni et al., 1997)
[12] = 20 µM, 12 min, purified (Gafni et al., 1997)
[13] = Xestospongin 20 μM, pooled 7 and 12 min
[14] = Xestospongin 20 μM, pooled from 7 and 12 min pre-incubation
[15] = Xestospongin C 5–20 μM from either source, 5–12 min before IP3
[16] = 10 µM, 5 min, purified (Gafni et al., 1997)
[17] = 10 µM, 5 min, source Calbiochem

## C1CCC[C@H]2CCCN3CC[C@@H](CCCCCC[C@@H]4CCCN5CC[C@@H](CC1)O[C@@H]45)O[C@@H]23 [Xestospongin C]
[1]; [10]
  ΔMax: 2 ± 2%
[1]; 5 µM, 5 min, purified as described (Gafni et al., 1997)
  ΔpEC50: -0.12 ± 0.12 M⁻¹
[1]; 5 µM, 5 min, source Calbiochem
  ΔMax: 2 ± 1%
  ΔpEC50: 0.09 ± 0.07 M⁻¹
[1]; [11]
  ΔMax: 9 ± 3 %
  ΔpEC50: 0.08 ± 0.07 M⁻¹
[1]; [12]
  ΔMax: 4 ± 3%
  ΔpEC50: 0.33 ± 0.18 M⁻¹
[1]; [13]
  ΔMax: 6 ± 2 %
[1]; [14]
  ΔpEC50: 0.21 ± 0.10 M
[1]; [15]
  effect on IP3-evoked Ca^2+ release: no significant effect
[2]; [10]
  ΔMax: 0 ± 4%
[2]; 5 µM, 5 min, source Calbiochem
  ΔMax: 5 ± 6%
[2]; [11]
  ΔMax: 2 ± 2%
[2]; [12]
  ΔMax: 1 ± 2%
[2]; [13]
  ΔMax: 1 ± 1%
[2]; [15]
  effect on IP3-evoked Ca^2+ release: no significant effect
[3]; [10]
  ΔMax: 3 ± 14%
  ΔpEC50: 0.02 ± 0.09 M⁻¹
[3]; 5 µM, 5 min, source Calbiochem
  ΔMax: 15 ± 7%
  ΔpEC50: -0.04 ± 0.11 M⁻¹
[3]; [11]
  ΔMax: 1 ± 3%
  ΔpEC50: 0.15 ± 0.02 M⁻¹
[3]; [12]
  ΔMax: 2 ± 2%
  ΔpEC50: 0.10 ± 0.05 M⁻¹
[3]; [13]
  ΔMax: 1 ± 2%
  ΔpEC50: 0.12 ± 0.03 M
[3]; [15]
  effect on IP3-evoked Ca^2+ release: no significant effect
[4]; 5 μM purified Xestospongin C
  effect on Ca^2+ content of the stores: no significant effect
[5]; Xestospongin C 5 μM
  effect on Ca^2+ release evoked by IP3: no effect
[6]; Xestospongin C 5 μM
  effect on Ca^2+ content of the intracellular stores: no effect
[7]
  effect on Ca^2+ signals evoked by carbachol: no significant effect
[8]
  effect on carbachol-evoked Ca^2+ signals: substantial, though incomplete, inhibition
[9]
  IC50: 358 nM

## O[C@@]12CCCCCC[C@H]3CCN4CCC[C@H](CCCCCC[C@H]5CCN(CCC1)[C@@H]2O5)[C@H]4O3 [Xestospongin D]
[1]; [16]
  ΔMax: 15 ± 4 %
  ΔpEC50: -0.02 ± 0.10 M⁻¹
[1]; [17]
  ΔMax: 17 ± 6 %
  ΔpEC50: 0.28 ± 0.13 M⁻¹
[1]; [11]
  ΔMax: 18 ± 5 %
  ΔpEC50: 0.37 ± 0.11 M⁻¹
[1]; [12]
  ΔMax: 18 ± 1 %
  ΔpEC50: 0.14 ± 0.12 M⁻¹
[1]; [13]
  ΔMax: 18 ± 2 %
[1]; [14]
  ΔpEC50: 0.26 ± 0.09 M
[1]; Xestospongin D 10–20 μM from either source, 5–12 min
  effect on IP3-evoked Ca^2+ release: modest, but statistically significant
[2]; [16]
  ΔMax: 2 ± 3%
  ΔpEC50: -0.07 ± 0.07
[2]; [17]
  ΔMax: 2 ± 4%
  ΔpEC50: 0.25 ± 0.22
[2]; [11]
  ΔMax: 5 ± 2%
  ΔpEC50: -0.06 ± 0.04
[2]; [12]
  ΔMax: 11 ± 5%
  ΔpEC50: -0.23 ± 0.06
[2]; [13]
  ΔMax: 8 ± 3 %
  ΔpEC50: −0.15 ± 0.05
[2]; Xestospongin 20 μM, pooled 7 and 12 min, listed as XeD
  ΔpEC50: -0.15 ± 0.05
[3]; [16]
  ΔMax: 8 ± 8%
  ΔpEC50: 0.16 ± 0.26 M⁻¹
[3]; [17]
  ΔMax: 12 ± 1 %
  ΔpEC50: 0.03 ± 0.04 M⁻¹
[3]; [11]
  ΔMax: 4 ± 2%
  ΔpEC50: 0.39 ± 0.10 M⁻¹
[3]; [12]
  ΔMax: -1 ± 0%
  ΔpEC50: 0.03 ± 0.08 M⁻¹
[3]; [13]
  ΔMax: 2 ± 2%
  ΔpEC50: 0.21 ± 0.10 M
[4]; 10 μM purified Xestospongin D
  effect on Ca^2+ content of the intracellular stores: no effect
[5]; Xestospongin D 10 μM
  effect on Ca^2+ release evoked by IP3: no effect
[6]; Xestospongin D 10 μM
  effect on Ca^2+ content of the intracellular stores: no effect
[7]
  effect on Ca^2+ signals evoked by carbachol: no significant effect
